Results on nine molecules are retold here after patent publication US4687773A, “(+)-N-N-propylnorapomorphine and selective limbic activity” (priority 1985, dated 1987).

Counter-ions that a name gives are not always drawn. Like-named read-outs stand apart in the source and are kept apart here.

The subject of assay [1] is dopamine (DA) receptors in the basal ganglia (corpus striatum). Put plainly: Stereotyped licking and gnawing behavior rating in the rat. The settings on record: for SB Score, Percent of Maximum / SB Score (stereotyped behaviors): Table 12, 3 mg/kg ip; for SB Score (stereotyped behaviors): max. possible score 18.0; for stereotyped behavior (in words): rat, in vivo. In kind it is in vivo. From the text:
Stereotypy: The mean stereotyped licking and gnawing behavioral rating scheme developed by Tarsy and Baldessarini^8 was used. […]
Stereotypy scores were rated for one hour as described in […]

Assay [2] relates to dopamine (DA) receptors in the limbic system. Description: Locomotor activity (spontaneous or aroused by (-)APO / (-)NPA), electronic activity monitor. The settings on record: for interaction with (-)APO locomotor arousal (in words) / EAM Score / EAM Score, Percent of Control: Table 11; for interaction with (-)APO locomotor arousal (in words): 3 mg/kg ip with (-)APO; for EAM Score: 60 min; for effect on locomotor-arousal activity (in words): with or without (-) isomer; for increase of the locomotor stimulatory effect of APO: with (-)APO; for Locomotion: Table 4. In kind it is in vivo, rat. On the procedure: (§1) Activity: Overall motor activity was measured by use of the self-recording Stoelting electronic activity monitor method described previously by Stewart, Campbell, Sperk, and Baldessarini^9. Total activity is obtained by setting monitor sensitivity so as to detect both locomotion and small movements (such as grooming, sniffing, and chewing) as would be prominent in stereotyped responses that tend to diminish locomotion and increase sniffing, licking, and chewing movements. Locomotor activity is detected selectively by setting monitor sensitivity to detect large, locomotor movements, and to minimize smaller movements already described.
Rats (mean N=6 per condition) were tested for locomotor activity for 60 min following a single dose of (-)APO (0.3 mg/kg, SC), or its vehicle ("placebo" condition). The S(+) isomers were administered in a range of doses from 0 or 0.1 to 30 mg/kg, SC immediately following injection of (-)APO or its vehicle. Data are presented in FIG. 2 as mean EAM activity counts per hour SEM. In that figure, the dashed line labeled "control" represents the mean activity of rats given vehicle only and no aporphine (SD values are indicated by parallel light lines above and below the control mean).
Test agents (11substituted-N--propylnoraporphine isomers were given at a
dose of 3 mg/kg, ip (in 2 ml/kg) just prior to (-)apomorphine (APO, at 0.
mg/kg, ip, in 1 ml/kg) to rats (N = 6) tested in an electronic activity

The test system is the same in assay [3]. Description: Effect of metabolic inhibitor SKF-525A on locomotor effect of (+)MDO-NPA. In kind it is in vivo, rat. The method, then:
Rats (N = 6) per condition) were tested by monitoring locomotor activity
on an electronic monitor under higharousal conditions (7-8 PM during earl
"lights out" phase, and singly in previously occupied test cages).
Pretreatment was saline (control) or the microsomal inhibitor SKF525A (40
mg/kg, ip). At 30 min later, saline or (+)MDONPA (3 mg/kg, ip) was given,
and the rats were monitored for the next 60 min. Data are activity counts
per hour, as means ± SEM ([*] = significant by ttest at p < 0.05). Th

The subject of assay [4] is DA in the corpus striatum (basal ganglia). Description: Head posture (contralateral head deviation) after intrastriatal DA. The assay is classed as in vivo, rat.
Protocol: Rats given 16 μg DA into striatum after an MAO inhibitor; head posture
after an aporphine. Data are means ± SEM (N = 6).
Assay [5] deals with DA in the limbic system (nucleus accumbens septi). Put plainly: Arousal (locomotor activity) induced by DA injected into nucleus accumbens septi. The assay is classed as in vivo, rat. The settings on record: for activity counts (arousal induced by 16 μg DA in accumbens): 30 min, DA control 238 ± 38; for ED50: Rattus norvegicus; for ED50 / ID50: DA 16 μg in accumbens; for ID50: hydrochloride. The method, then: An experiment shown in Table 9 involves testing the effects of S(+) isomers of apomorphine (APO) and N-propylnorapomorphine (NPA) given systemically (intraperitoneally, ip), as well as S(+) methylenedioxy-N-propylnorapomorphine (MDO-NPA) given ip or orally (po, by orogastric intubation). […]. […] Activity was monitored for 30 min after injection of DA into the brain, which was done at 10 min after systemic dosing with an S(+)aporphine test compound.
Data are mean activity counts ± SEM (N = 6) for rats given DA into the
medial accumbens after pretreatment with an inhibitor of monoamine oxidas
(MA0), and monitored on EAM for 30 min (aporphine given 10 min before DA
systemicallyintraperitoneally [ip] or orally [po].

In assay [6] the test system is dopamine (DA) receptors in the limbic system and basal ganglia. Put plainly: Total motor activity, electronic activity monitor (EAM). The assay is classed as in vivo, rat. The settings on record: Table 4. The method, then:
as §1
All data presented in the Tables below are expressed as the mean results from 4-6 rats per condition, ±S.E.M. Stereotypy is expressed in rating units (maximum=3.0) and activity is expressed in arbitrary units of percent change, derived from EAM counts per unit time, relative to activity in control (saline) animals set at zero.
All the posttreatment doses of (+)APO were 3.0 mg/kg, s.c. The data
All posttreatment doses of (+)NPA were 3 mg/kg, s.c. The data are similar

In assay [7] the test system is dopamine (DA) receptors in the limbic system. Description: Locomotor activity (spontaneous or aroused by (-)APO / (-)NPA), electronic activity monitor. In kind it is in vivo, rat. The settings on record: Table 4; (-)APO 3.0 mg/kg + saline.
Setting [8] is: test agent 3 mg/kg ip just prior to (-)APO ip.
The mark [9] stands for this setting: test agent 3 mg/kg ip just prior to (-)APO ip, * p < 0.005.
Where [10] appears, read: SKF-525A 40 mg/kg ip pretreatment, then S(+)MDO-NPA 3 mg/kg ip.
[11] abbreviates: intrastriatal DA 16 μg, 3 mg/kg ip.
Setting [12] is: intrastriatal DA 16 μg, 3 mg/kg po.
The mark [13] stands for this setting: intrastriatal dopamine 16 μg + systemic saline.
Setting [14] is: SKF-525A 40 mg/kg ip, then saline.

For `CCCN1CCc2cccc3c2[C@@H]1Cc1cccc(O)c1-3` [(+)11-OH--N--propylnoraporphine, S(+) 11-hydroxy-N-propylnoraporphine hydrochloride and hydrobromide], in assay [1], the “SB Score, Percent of Maximum” value is recorded as 6.9% of Maximum and the “stereotyped behavior (in words)” value is “virtually inactive”. The “SB Score (stereotyped behaviors)” value in assay [1] (one hour) was determined as 1.3 ± 0.75. Besides, in assay [2] (listed as S(+)11-hydroxy-N-propylnoraporphine, hydrobromide, 3 mg/kg), the “interaction with (-)APO locomotor arousal (in words)” value (from here on “interaction”) is reported as “strong inhibitory interaction with APO”. For the same molecule, the “interaction” value in assay [2] (listed as S(+)11hydroxy-N--propylnoraporphine, hydrobromide, 3 mg/kg) is “significant inhibition of arousal”. For the same molecule, the “EAM Score” value in assay [2] (setting [8]) is listed as 218 ± 33. For the same molecule, the “EAM Score, Percent of Control” value in assay [2] (setting [9]) is recorded as 43% of Control. Besides, the “effect on locomotor-arousal activity (in words)” value in assay [2] is on record as “exerted similarly selective actions as (+)NPA”.

For the molecule `CCCN1CCc2cccc3c2[C@@H]1Cc1cccc(OC)c1-3` [(+)11-methoxy-N--propylnoraporphine, S(+) 11-Methoxy-N-propylnoraporphine hydrobromide], in assay [1], the “SB Score, Percent of Maximum” value is on record as 0.0% of Maximum and the “stereotyped behavior (in words)” value is “inactive”. Besides, the “SB Score (stereotyped behaviors)” value in assay [1] (one hour) came out at 0 ± 0. The “interaction” value in assay [2] is recorded as “devoid of activity”. The “EAM Score” value in assay [2] (setting [8]) is listed as 528 ± 25. The “EAM Score, Percent of Control” value in assay [2] (setting [9]) is 105% of Control.

As for `CCCN1CCc2cccc3c2[C@@H]1Cc1ccc2c(c1-3)OCO2` [(+)MDO-NPA, S(+) 10,11-methylenedioxy-N-propylnoraporphine hydrochloride], the “Locomotor Activity” value stood at 3445 ± 597 counts/hr in assay [3] (setting [10]) and 1828 ± 265 counts/hr in assay [3] (saline pretreatment, then S(+)MDO-NPA 3 mg/kg ip). The “Locomotor Activity (%)” value in assay [3] (setting [10]) turned out to be 82%; in assay [3] (saline pretreatment, then S(+)MDO-NPA 3 mg/kg ip, * p < 0.05), 43%. In addition, the “Contralateral Head Deviation, Percent of Total” value is 71.7% of Total in assay [4] (setting [11]) and 70.1% of Total in assay [4] (setting [12]). The “Contralateral Head Deviation, Time” value worked out at 512 ± 96 s in assay [4] (setting [11]) and 505 ± 89 s in assay [4] (setting [12]). The “activity counts (arousal induced by 16 μg DA in accumbens)” value in assay [5] (0.3 mg/kg ip) is 122 ± 16 activity counts; in assay [5] (0.3 mg/kg po) it was 149 ± 23 activity counts; in assay [5] (1.0 mg/kg ip), 54 ± 9 activity counts; in assay [5] (1.0 mg/kg po), 74 ± 17 activity counts; in assay [5] (3.0 mg/kg ip), 36 ± 7 activity counts; in assay [5] (3.0 mg/kg po), 49 ± 16 activity counts. The ED50 in assay [5] (ip, read-out: ID50, ip) was determined as 0.27 mg/kg; in assay [5] (po, read-out: ID50, po), 0.51 mg/kg. The values for the ID50 in assay [5] (ip) and in assay [5] (po) were 0.3 mg/kg and 0.5 mg/kg, respectively. Further, the “effect on arousal induced by DA in accumbens (in words)” value in assay [5] (rat, in vivo) is reported as “also active after systemic oral administration, selectively, against DA placed in the accumbens but not the striatum”. The “times more potent than (+)APO as inhibitor of DA in the limbic system” value in assay [5] (vs (+)APO) stood at 13 times.

On to `CCCN1CCc2cccc3c2[C@H]1Cc1cccc(O)c1-3` [(-)11-OH--N--propylnoraporphine, R(-)11-hydroxy-N-propylnoraporphine], for which the “SB Score, Percent of Maximum” value in assay [1] is 76.7% of Maximum. Moreover, the “SB Score (stereotyped behaviors)” value in assay [1] (one hour) came to 13.8 ± 0.75. The “stereotyped behavior (in words)” value in assay [1] (listed as R(-)11-hydroxy-N-- propylnoraporphine) is “very active”; in assay [1] (listed as R(-)11-hydroxy-N-propylnoraporphine), “striking activity as a DA agonist”. The “increase of the locomotor stimulatory effect of APO” value in assay [2] (3 mg/kg) is 51%. The “EAM Score” value in assay [2] (setting [8]) is listed as 764 ± 58. The “EAM Score, Percent of Control” value in assay [2] (setting [9]) was 151% of Control.

`CCCN1CCc2cccc3c2[C@H]1Cc1cccc(OC)c1-3` [(-)11-methoxy-N--propylnoraporphine]: the “SB Score, Percent of Maximum” value in assay [1] is listed as 36.1% of Maximum. Besides, in assay [1] (one hour), the “SB Score (stereotyped behaviors)” value is on record as 6.5 ± 0.50. Besides, the “stereotyped behavior (in words)” value in assay [1] (listed as 11-methoxy congener) was “moderately active”; in assay [1] (listed as R(-)11methoxy analog), “had some activity”. Further, the “increase of the locomotor stimulatory effect of APO” value in assay [2] (3 mg/kg) turned out to be 14%. Moreover, in assay [2] (setting [8]), the “EAM Score” value is 574 ± 45. Further, the “EAM Score, Percent of Control” value in assay [2] (setting [9]) is reported as 114% of Control.

In the case of `CN1CCc2cccc3c2[C@H]1Cc1ccc(O)c(O)c1-3` [(-)APO, R(-)apomorphine], the “Total Activity” value in assay [6] ((-)APO 0.3 mg/kg + saline) was 42.2 ± 8.5 percent change; in assay [6] ((-)APO 1.0 mg/kg + saline), 51.9 ± 6.8 percent change; in assay [6] ((-)APO 3.0 mg/kg + saline) it was 75.3 ± 8.6 percent change. Besides, in assay [1] ((-)APO 0.3 mg/kg IP + vehicle), the “mean control stereotypy score, % of maximum” value is 51.3 % of maximum. In addition, the “mean control stereotypy score” value in assay [1] ((-)APO 0.3 mg/kg IP + vehicle, one hour, maximum possible score 18.0) is 9.23 ± 0.43. In addition, the “approximate ED50 (stereotyped behavior)” value in assay [1] ((-)APO, IP, rats) was roughly 0.3 mg/kg. In addition, the “Stereotypy Score” value in assay [1] (Table 1, (-) isomer 3 mg/kg, s.c., ± saline, maximum 3.0) is given as 3.0 ± 0.0 rating units; in assay [1] (Table 4, (-)APO 0.3 mg/kg + saline), 1.62 ± 0.23 rating units; in assay [1] (Table 4, (-)APO 1.0 mg/kg + saline) it was 2.09 ± 0.36 rating units; in assay [1] (Table 4, (-)APO 3.0 mg/kg + saline), 2.92 ± 0.20 rating units. The Locomotion in assay [7] was found to be 48.6 ± 9.3 percent change; in assay [2] ((-)APO 0.3 mg/kg + saline), 63.5 ± 12.3 percent change; in assay [2] ((-)APO 1.0 mg/kg + saline), 75.8 ± 19.4 percent change. For the same molecule, the “EAM Score, Percent of Control” value in assay [2] ((-)APO alone (control)) is 100% of Control. In assay [2] ((-)APO alone (control), ip), the “EAM Score” value worked out at 505 ± 55.

Take `NCCc1ccc(O)c(O)c1` [DA, dopamine]: in assay [4] (setting [13]), the “Contralateral Head Deviation, Percent of Total” value is recorded as 59.0% of Total and the “Contralateral Head Deviation, Time” value amounted to 425 ± 53 s.

Regarding `CN1CCc2cccc3c2[C@@H]1Cc1cccc(O)c1-3` [S(+) 11-hydroxyaporphine, S(+) 11-hydroxyaporphine (N-R=N-methyl)], in assay [2], the “effect on locomotor-arousal activity (in words)” value is “less active”.

Take `CCCC(C(=O)OCCN(CC)CC)(c1ccccc1)c1ccccc1` [SKF-525A]: in assay [3] (setting [14]), the “Locomotor Activity” value was 4777 ± 610 counts/hr and the “Locomotor Activity (%)” value was found to be 113%.
